# Measured values from US7057048B2, “Androgen receptor antagonists” (Warner Lambert Company LLC, priority 2003, dated 2006).
# Biological target: T1, androgen receptor (Homo sapiens, UniProt P10275)
# T1 sequence (P10275 1-920 Q868H): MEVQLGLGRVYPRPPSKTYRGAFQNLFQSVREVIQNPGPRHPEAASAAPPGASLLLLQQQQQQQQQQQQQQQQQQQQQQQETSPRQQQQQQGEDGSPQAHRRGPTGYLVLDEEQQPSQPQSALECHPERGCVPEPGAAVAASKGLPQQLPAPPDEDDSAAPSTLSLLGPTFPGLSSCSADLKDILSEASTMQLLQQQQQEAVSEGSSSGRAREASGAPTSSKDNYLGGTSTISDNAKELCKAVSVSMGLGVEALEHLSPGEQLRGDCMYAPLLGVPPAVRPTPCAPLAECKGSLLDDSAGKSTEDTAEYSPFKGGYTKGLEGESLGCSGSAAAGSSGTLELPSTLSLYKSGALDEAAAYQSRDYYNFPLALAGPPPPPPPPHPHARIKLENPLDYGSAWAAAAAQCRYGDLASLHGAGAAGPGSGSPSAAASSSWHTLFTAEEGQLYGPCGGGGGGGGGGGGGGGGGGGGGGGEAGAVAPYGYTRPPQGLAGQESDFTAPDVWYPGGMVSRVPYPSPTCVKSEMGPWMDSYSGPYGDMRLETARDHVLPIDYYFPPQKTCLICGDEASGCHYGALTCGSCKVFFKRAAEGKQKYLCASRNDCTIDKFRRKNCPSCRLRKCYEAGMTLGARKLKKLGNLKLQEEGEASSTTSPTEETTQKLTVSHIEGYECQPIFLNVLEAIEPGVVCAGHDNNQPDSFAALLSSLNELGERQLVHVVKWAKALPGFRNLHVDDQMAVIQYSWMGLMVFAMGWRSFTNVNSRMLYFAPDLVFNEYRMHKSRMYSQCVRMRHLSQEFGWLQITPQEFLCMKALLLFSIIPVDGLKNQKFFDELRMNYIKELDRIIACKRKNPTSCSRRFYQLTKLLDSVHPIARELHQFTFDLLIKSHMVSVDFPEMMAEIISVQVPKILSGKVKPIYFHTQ
# Assay: AR Antagonist Cell Assay (MMTV-luciferase reporter, DHT-stimulated)
# Format: cell-based
# Conditions: MDA-MB453-MMTV clone 54-19 cells, inhibition of induction by 100 pM DHT, 17 hr
# Description: The compounds ability to antagonize the effects of androgen on the androgen receptor were determined in the protocol described immediately below.
# Experimental Procedure for AR Antagonist Cell Assay
# Cell line: MDA-MB453-MMTV clone 54-19. This cell line is a stable transfected cell line with MDA-MB453 cell background (human breast tumor cell expressing high level of androgen receptor). A MMTV minimal promoter containing ARE was first cloned in front of a firefly luciferase reporter gene. Then the cascade was cloned into transfection vector pUV120puro. Electroporation method was used for transfecting MDA-MB-453 cell. Puromycin resistant stable cell line was selected.
# Cell Culture Media and Reagents:
# Culture medium: DMEM (high glucose, Gibco cat #: 11960-044), 10% FBS, and 1% L-glutamine
# Plating medium: DMEM (phenol red free), 10% charcoal treated HyClone serum, 1% L-glutamine
# Assay medium: DMEM (phenol red free), 1% charcoal treated HyClone serum, 1% L-glutamine, and 1% penicillin/streptomycin
# 3×luciferase buffer: 2% beta-mercaptoethanol, 0.6% ATP, 0.0135% luciferine in cell lysis buffer
# • 1. Cells are maintained in culture medium, splitting cells when they reach 80–90% confluence • 2. To test compounds, 10,000 cells/well are plated to opaque 96 cell culture plate in 100 ul/well plating medium, culture for overnight at 37° C. in cell culture incubator • 3. Carefully remove plating medium, then add 80 ul/well of pre-warmed assay medium, add 10 ul/well testing compound (final concentration at 10 uM or 1 uM), incubate at 37° C. for 30 minutes • 4. Add 10 ul/well freshly prepared DHT (final concentration at 100 pM) to each well, incubate at 37° C. for 17 hr (overnight) • 5. Add 50 ul/well 3×luciferase buffer, incubate at room temperature for 5 minutes, then count on Luminometer
# The fold induction over background by 100 pM DHT in the absence of testing compounds is standardized as 100% and experimental result is expressed as percentage of inhibition by testing compounds.
row,SMILES,IC50 [µM]
1,"O=c1cc(C(F)(F)F)c2cc(Cc3ccc(S(=O)(=O)N4CCN(CCCN5CCCCC5)CC4)cc3)ccc2o1 [Example 38, 6-{4-[4-(3-Piperidin-1-ylpropyl)piperazine-1-sulfonyl]benzyl}-4-trifluoromethylchromen-2-one]",> 10
2,O=c1cc(C(F)(F)F)c2cc(Cc3ccc(S(=O)(=O)N4CCCN(CCc5ccccc5)CC4)cc3)ccc2o1 [Example 54],2.5
3,"O=c1cc(C(F)(F)F)c2cc(Cc3ccc(S(=O)(=O)N4CCC(O)(c5cccs5)CC4)cc3)ccc2o1 [Example 33, 6-[4-(4-Hydroxy-4-thiophen-2-ylpiperidine-1-sulfonyl)benzyl]-4-trifluoromethylchromen-2-one]",8.6

# The remaining lines, values ahead:
row,IC50 [µM],SMILES
1,8.2,"O=c1cc(C(F)(F)F)c2cc(Cc3ccc(S(=O)(=O)N4CCN(CCCO)CC4)cc3)ccc2o1 [Example 31, 6-{4-[4-(3-Hydroxypropyl)piperazine-1-sulfonyl]benzyl}-4-trifluoromethylchromen-2-one]"
2,> 10,"CCOC(=O)C1CCCN(S(=O)(=O)c2ccc(Cc3ccc4[nH]c(=O)cc(C(F)(F)F)c4c3)cc2)C1 (centres unmarked) [Example 1, 1-[4-(2-Oxo-4-trifluoromethyl-1,2-dihydroquinolin-6-ylmethyl)benzenesulfonyl]-piperidine-3-carboxylicacid ethyl ester]"
